Tests used:
[1] = biological target: T1, human Hsc70 (Homo sapiens, UniProt P11142); assay: SPR binding to immobilized Hsc70 (binary); conditions: immobilized Hsc70, 25 °C
T1 construct: purchased MedChemExpress HY-P73915A
Method: (§1) The SPR data was generated by our Shared Instrumentation Core Facility at the Hangzhou Institute of Medicine (HIM), Chinese Academy of Sciences. The in vitro binding affinity of compound GDAz‐3 to recombinant proteins (Hsc70, MedChemExpress, #HY‐P73915A; GPX4, Cayman, Item No. 26 906) was evaluated using a Biacore 8K system (Cytiva (GE)) with the method of LMW multi‐cycle kinetics/affinity. Pipelines and chips were flushed with PBS (pH 7.4) running buffer, and then, human Hsc70 was immobilized on a CM5 sensor chip. Analysis was performed at a flow rate of 30 µL min^−1 at 25 °C with the injection of incremental concentrations of compounds dissolved in buffer solution (the final concentration of DMSO was 5%). For ternary‐complex binding measurements, Hsc70 was immobilized on a CM5 sensor chip, and compound GDAz‐3 at a concentration of 1 µM was preincubated with GPX4. The binding and dissociation durations were recorded as response unit values for 120 and 120 s in succession, respectively. Finally, the data were analyzed by Biacore evaluation software with the method of LMW multi‐cycle kinetics/affinity.

[2] = biological target: T2, GPX4 (Homo sapiens, UniProt P36969); assay: Quantitative proteomics of HT1080 cells; assay type: cell-based; design: determine the changes in the endogenous levels of GPX4 by western blot assay; endogenous in cells; host or cells: HT1080 fibrosarcoma cells, including siRNA-knockdown derivatives; conditions: 2 µM, 18 h
T2 sequence (P36969 1-170 isoform P36969-2): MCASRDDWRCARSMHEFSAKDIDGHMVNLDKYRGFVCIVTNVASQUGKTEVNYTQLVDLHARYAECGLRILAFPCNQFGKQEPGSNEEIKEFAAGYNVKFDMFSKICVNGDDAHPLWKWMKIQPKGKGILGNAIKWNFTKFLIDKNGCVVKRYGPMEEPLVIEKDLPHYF
Method: The proteomics data were generated by Shanghai Bioprofile Co., Ltd. After treatment with compound GDAz‐3 (2 µM) or DMSO for 18 h, the samples were collected. LC‐MS/MS analysis was conducted using an Orbitrap Astral zoom mass spectrometer paired with a Vanquish Neo UHPLC system (Thermo Fisher Scientific). Peptides from each sample were loaded into a column (50 cm Low‐Load µPAC Neo HPLC Column, Thermo Scientific) at a flow rate of 2.2 µL min^−1. The reversed‐phase high‐performance liquid chromatography (RP‐HPLC) mobile phases consisted of solvent A (0.1% formic acid in water) and solvent B (0.1% formic acid in 80% acetonitrile). Peptide elution was performed over 4.8 min with a linear gradient of buffer B at a flow rate 1.25 µL min^−1. The linear gradient was programmed as follows: 0–0.1 min, an increase from 4% to 6% solvent B; 0.1–1.1 min, from 6% to 12% buffer B; 1.1–4.3 min, from 12% to 25% buffer B; 4.3–6.1 min, from 25% to 45% buffer B; 6.1–6.5 min, from 45% to 99% buffer B; 6.5–8 min, buffer B maintained at 99%. The eluted peptides were subsequently analyzed on a Orbitrap Astral mass spectrometer. The DIA method consisted of a full scan m/z range of 380–980 at resolution 240 000 with AGC target of 500% and 5 ms injection time. […] Full MS scan spectra were recorded in profile mode, whereas DIA scan spectra were collected in centroid mode.

[3] = biological target: T3, Hsc70 in the presence of GPX4 protein (Homo sapiens, UniProt P11142+P36969); assay: SPR ternary-complex binding (GDAz-3 preincubated with GPX4, Hsc70 immobilized)
T3 construct: purchased MedChemExpress (Hsc70); Cayman (GPX4) HY-P73915A; 26 906
Method: as §1

[4] = Relative drug biodistribution in HT1080 xenograft mice (LC-MS/MS); assay type: in vivo, nude mice; conditions: 50 mg/kg, 12 h, n = 1
Source text: In addition, the tumor samples from the six treatment groups were randomly collected and probed for the levels of GPX4, and 4‐HNE (4‐hydroxynonenal, a lipid peroxidation marker) by immunohistochemistry (IHC) staining (Figure 7G). […] Collectively, the HSP70‐PROTAC GDAz‐3 has been confirmed as an effective ferroptosis‐inducing agent, which can degrade GPX4 both in vitro and in vivo via UPS and CMA dual processes.
GDAz‐3 was intravenously injected into an HT1080‐bearing xenograft tumor mouse model at 50 mg kg^−1. After 12 h of treatment, samples of tumor tissue and major organs, including the heart, liver, spleen, lung, kidney, and intestine, were collected. After weighing, these samples were processed into homogenates, and 500 µL of cold methanol was added. After thorough mixing, the supernatant was generated by centrifugation (4 °C, 12 000 rpm, 15 min), and then analyzed by liquid chromatography‐tandem mass spectrometry (Agilent 6495C Triple Quadrupole LC/MS). In brief, a volume of 1 µL from each sample was extracted and injected into a Waters Acquity Premmier BEH C18 (2.1 × 50 mm, 1.7 µm) column. The solvent delivery module was used to deliver an HPLC gradient of 20–95% B over 7 min (A: 0.1% formic acid in water, B: acetonitrile) at a flow rate of 0.3 mL min^−1. […] The quantification was performed based on peak area. […]

T3 sequence (P11142 whole entry, one chain of several): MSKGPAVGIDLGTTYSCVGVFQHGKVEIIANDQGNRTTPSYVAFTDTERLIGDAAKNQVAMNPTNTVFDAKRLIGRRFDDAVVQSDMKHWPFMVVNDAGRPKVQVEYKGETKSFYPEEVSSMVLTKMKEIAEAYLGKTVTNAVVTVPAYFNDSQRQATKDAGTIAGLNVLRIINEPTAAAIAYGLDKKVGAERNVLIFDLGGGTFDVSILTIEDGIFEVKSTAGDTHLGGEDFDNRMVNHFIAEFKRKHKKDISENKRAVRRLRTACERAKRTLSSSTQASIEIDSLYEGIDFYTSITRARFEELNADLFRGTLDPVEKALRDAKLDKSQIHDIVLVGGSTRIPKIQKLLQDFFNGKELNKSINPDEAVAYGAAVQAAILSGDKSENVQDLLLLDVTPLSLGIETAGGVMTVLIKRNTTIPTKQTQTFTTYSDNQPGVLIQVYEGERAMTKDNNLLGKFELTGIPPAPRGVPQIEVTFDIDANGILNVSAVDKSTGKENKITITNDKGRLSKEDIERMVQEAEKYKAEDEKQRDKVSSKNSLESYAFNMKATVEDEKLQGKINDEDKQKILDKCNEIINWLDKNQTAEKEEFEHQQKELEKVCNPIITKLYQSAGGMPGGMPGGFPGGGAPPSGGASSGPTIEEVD
T1 sequence (P11142 whole entry): as the sequence (P11142 whole entry, one chain of several) above

SMILES: COc1ccc(-c2nc(-c3cc(C(F)(F)F)cc(C(F)(F)F)c3)n(Cc3ccc(C(=O)NCCOCCOCCOCCn4cc(COc5ccc(N(C(=O)CCl)C(C(=O)NCCc6ccccc6)c6cccs6)cc5Cl)nn4)cc3)c2-c2ccc(OC)cc2)cc1 (centres unmarked) [GDAz-3, 4-((2-(3,5-bis(trifluoromethyl)phenyl)-4,5-bis(4-methoxyphenyl)-1H-imidazol-1-yl)methyl)-N-(2-(2-(2-(2-(4-((2-chloro-4-(2-chloro-N-(2-oxo-2-(phenethylamino)-1-(thiophen-2-yl)ethyl)acetamido)phenoxy)methyl)-1H-1,2,3-triazol-1-yl)ethoxy)ethoxy)ethoxy)ethyl)benzamide]
- Kd [1]: 18 nM
- Proteomics profiling, GPX4 abundance [2]: clear degradation of GPX4
- Kd ([3]; SPR, 1 µM GDAz-3 preincubated with GPX4, immobilized Hsc70): 23.9 nM
- Cooperativity (α) ([3]; ternary complex Hsc70/GDAz-3/GPX4): 0.75
- Concentration in tumor tissue relative to other tissues [4]: significantly higher than that in other tissues

— PMC12948223, “HSP70 Interactome‐Mediated Proteolysis Targeting Chimera (HSP70‐PROTAC) for Ferroptosis‐Driven Cancer Treatment” (Advanced Science, 2025)
